Assays:
[1] = system: recombinant NL4-3 virus (Renilla luciferase in nef); assay: HIV cell culture assay (antiviral activity, luciferase readout in MT-2 cells); assay type: cell-based; settings: Renilla, NL43
Method in brief: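 MT-2 cells were infected for 4-5 days with 293T-derived recombinant NL4-3 reporter virus in the presence of serially diluted compound. Antiviral activity was quantified as luciferase activity using a live-cell substrate. EC50 was derived from the median effect equation.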

[2] = Compound cytotoxicity, XTT-based colorimetric assay; assay type: cell-based; settings: human; uninfected MT2 cells, day 4, XTT
Method: Compound cytotoxicity and the corresponding CC50 values were determined using the same protocol as described in the antiviral assay except that uninfected cells were used. Cytotoxicity was assessed on day 4 in uninfected MT2 cells by using an XTT (2,3-bis[2-Methoxy-4-nitro-5-sulfophenyl]-2H-tetrazolium-5-carboxyanilide inner salt)-based colorimetric assay (Sigma-Aldrich, St Louis, Mo.).

Row | Structure (SMILES) | EC50 [1] | CC50 at 4 days [2]
1 | Cn1nc(NS(C)(=O)=O)c2c(Cl)ccc(-n3c([C@H](Cc4cc(F)cc(F)c4)NC(=O)Cn4nc(C(F)F)c5c4C(F)(F)[C@H]4C[C@@H]54)nc4cc(-c5ccn(CC6CC6)n5)ccc4c3=O)c21 (atropisomer, axis not shown; (P)) [Example 31, N—((S)-1-((3P)-3-(4-chloro-1-methyl-3-(methylsulfonamido)-1H-indazol-7-yl)-7-(1-(cyclopropylmethyl)-1H-pyrazol-3-yl)-4-oxo-3,4-dihydroquinazolin-2-yl)-2-(3,5-difluorophenyl)ethyl)-2-((3bS,4aR)-3-(difluoromethyl)-5,5-difluoro-3b,4,4a,5-tetrahydro-1H-cyclopropa[3,4]cyclopenta[1,2-c]pyrazol-1-yl)acetamide] | 110 pM | > 500000 pM
2 | Cn1nc(NS(C)(=O)=O)c2c(Cl)ccc(-n3c([C@H](Cc4cc(F)cc(F)c4)NC(=O)Cn4ccc(C5CC5)n4)nc4cc(-c5ccn(CC(F)(F)C(F)F)n5)ccc4c3=O)c21 (atropisomer, axis not shown; (P)) [Example 63, (S)—N-(1-((3P)-3-(4-chloro-1-methyl-3-(methylsulfonamido)-1H-indazol-7-yl)-4-oxo-7-(1-(2,2,3,3-tetrafluoropropyl)-1H-pyrazol-3-yl)-3,4-dihydroquinazolin-2-yl)-2-(3,5-difluorophenyl)ethyl)-2-(3-cyclopropyl-1H-pyrazol-1-yl)acetamide] | 43 pM | > 100000 pM
3 | Cn1nc(NS(C)(=O)=O)c2c(Cl)ccc(-n3c([C@H](Cc4cc(F)cc(F)c4)NC(=O)Cn4nc(C(F)F)c5c4C(F)(F)[C@@H]4C[C@H]54)nc4cc(-c5cncc(C(F)(F)F)n5)ccc4c3=O)c21 (atropisomer, axis not shown; (P)) [Example 22, N—((S)-1-((3P)-3-(4-chloro-1-methyl-3-(methylsulfonamido)-1H-indazol-7-yl)-4-oxo-7-(6-(trifluoromethyl)pyrazin-2-yl)-3,4-dihydroquinazolin-2-yl)-2-(3,5-difluorophenyl)ethyl)-2-((3bS,4aR)-3-(difluoromethyl)-5,5-difluoro-3b,4,4a,5-tetrahydro-1H-cyclopropa[3,4]cyclopenta[1,2-c]pyrazol-1-yl)acetamide] | 60 pM | > 100000 pM
4 | Cc1cc(C#N)nc(-c2ccc3c(=O)n(-c4ccc(Cl)c5c(NS(C)(=O)=O)nn(C)c45)c([C@H](Cc4cc(F)cc(F)c4)NC(=O)Cn4nc(C(F)F)c5c4C(F)(F)[C@@H]4C[C@H]54)nc3c2)n1 (atropisomer, axis not shown; (P)) [Example 12, N—((S)-1-((3P)-3-(4-chloro-1-methyl-3-(methylsulfonamido)-1H-indazol-7-yl)-7-(4-cyano-6-methylpyrimidin-2-yl)-4-oxo-3,4-dihydroquinazolin-2-yl)-2-(3,5-difluorophenyl)ethyl)-2-((3bS,4aR)-3-(difluoromethyl)-5,5-difluoro-3b,4,4a,5-tetrahydro-1H-cyclopropa[3,4]cyclopenta[1,2-c]pyrazol-1-yl)acetamide] | 87 pM | > 500000 pM
5 | Cn1nccc1-c1ccc2c(=O)n(-c3ccc(Cl)c4c(NS(C)(=O)=O)nn(C)c34)c([C@H](Cc3cc(F)cc(F)c3)NC(=O)Cn3nc(C(F)F)c4c3C(F)(F)[C@@H]3C[C@H]43)nc2c1 (atropisomer, axis not shown; (P)) [Example 20, N—((S)-1-((3P)-3-(4-chloro-1-methyl-3-(methylsulfonamido)-1H-indazol-7-yl)-7-(1-methyl-1H-pyrazol-5-yl)-4-oxo-3,4-dihydroquinazolin-2-yl)-2-(3,5-difluorophenyl)ethyl)-2-((3bS,4aR)-3-(difluoromethyl)-5,5-difluoro-3b,4,4a,5-tetrahydro-1H-cyclopropa[3,4]cyclopenta[1,2-c]pyrazol-1-yl)acetamide] | 56 pM | > 500000 pM
6 | CC(F)(F)Cn1ccc(-c2ccc3c(=O)n(-c4ccc(Cl)c5c(NS(C)(=O)=O)nn(CC(F)F)c45)c([C@H](Cc4cc(F)cc(F)c4)NC(=O)Cn4nc(C(F)F)c5c4C(F)(F)[C@@H]4C[C@H]54)nc3c2)n1 (atropisomer, axis not shown; (P)) [Example 64, N—((S)-1-((3P)-3-(4-chloro-1-(2,2-difluoroethyl)-3-(methylsulfonamido)-1H-indazol-7-yl)-7-(1-(2,2-difluoropropyl)-1H-pyrazol-3-yl)-4-oxo-3,4-dihydroquinazolin-2-yl)-2-(3,5-difluorophenyl)ethyl)-2-((3bS,4aR)-3-(difluoromethyl)-5,5-difluoro-3b,4,4a,5-tetrahydro-1H-cyclopropa[3,4]cyclopenta[1,2-c]pyrazol-1-yl)acetamide] | 87 pM | > 100000 pM
7 | Cn1nc(NS(C)(=O)=O)c2c(Cl)ccc(-n3c([C@H](Cc4cc(F)cc(F)c4)NC(=O)Cn4nc(C(F)F)c5c4C(F)(F)[C@@H]4C[C@H]54)nc4cc(-c5cnn(C6CC6)c5)ccc4c3=O)c21 (atropisomer, axis not shown; (P)) [Example 40, N—((S)-1-((3P)-3-(4-chloro-1-methyl-3-(methylsulfonamido)-1H-indazol-7-yl)-7-(1-cyclopropyl-1H-pyrazol-4-yl)-4-oxo-3,4-dihydroquinazolin-2-yl)-2-(3,5-difluorophenyl)ethyl)-2-((3bS,4aR)-3-(difluoromethyl)-5,5-difluoro-3b,4,4a,5-tetrahydro-1H-cyclopropa[3,4]cyclopenta[1,2-c]pyrazol-1-yl)acetamide] | 82 pM | > 100000 pM
8 | CC(F)(F)Cn1ccc(-c2ccc3c(=O)n(-c4ccc(Cl)c5c(NS(=O)(=O)C6CC6)nn(CC(F)F)c45)c([C@H](Cc4cc(F)cc(F)c4)NC(=O)Cn4nc(C(F)F)c5c4C(F)(F)[C@@H]4C[C@H]54)nc3c2)n1 (atropisomer, axis not shown; (P)) [Example 69, N—((S)-1-((3P)-3-(4-chloro-3-(cyclopropanesulfonamido)-1-(2,2-difluoroethyl)-1H-indazol-7-yl)-7-(1-(2,2-difluoropropyl)-1H-pyrazol-3-yl)-4-oxo-3,4-dihydroquinazolin-2-yl)-2-(3,5-difluorophenyl)ethyl)-2-((3bS,4aR)-3-(difluoromethyl)-5,5-difluoro-3b,4,4a,5-tetrahydro-1H-cyclopropa[3,4]cyclopenta[1,2-c]pyrazol-1-yl)acetamide] | 160 pM | > 100000 pM
9 | Cn1nc(NS(C)(=O)=O)c2c(Cl)ccc(-n3c([C@H](Cc4cc(F)cc(F)c4)NC(=O)Cn4nc(C(F)F)c5c4C(F)(F)[C@@H]4C[C@H]54)nc4cc(-c5ncc(Cl)cc5F)ccc4c3=O)c21 (atropisomer, axis not shown; (P)) [Example 8, N—((S)-1-((3P)-3-(4-chloro-1-methyl-3-(methylsulfonamido)-1H-indazol-7-yl)-7-(5-chloro-3-fluoropyridin-2-yl)-4-oxo-3,4-dihydroquinazolin-2-yl)-2-(3,5-difluorophenyl)ethyl)-2-((3bS,4aR)-3-(difluoromethyl)-5,5-difluoro-3b,4,4a,5-tetrahydro-1H-cyclopropa[3,4]cyclopenta[1,2-c]pyrazol-1-yl)acetamide] | 300 pM | > 500000 pM

Source: US20230013823A1, “INHIBITORS OF HUMAN IMMUNODEFICIENCY VIRUS REPLICATION” (VIV HEALTHCARE UK (No. 5) LIMITED, priority 2019, published 2023)
